Entries after “also recorded” stand apart in the source; their conditions may differ.

The text below walks through data of US9080199B2, “Method to generate novel bioactive molecules” (priority 2010, dated 2015).

This test relates to S. aureus N315 (MRSA N315). Briefly: Disk / agar diffusion bioactivity test (zone of inhibition) against S. aureus N315. As to conditions: clavu7 extract compounds/fractions, 25-30 μL on 6 mm filter disks on N315 lawn on TSA, 16-20 hours at 30° C. It counts as cell-based, Staphylococcus aureus. The procedure: The two compounds were separated from one another by re-injecting the 11 to 11.5 minute fraction into the LC-MS system using an isocratic mobile phase of 30% methanol in water. Once separated, the two compounds were collected, concentrated by evaporating the solvent to a total volume of approximately 50 μL, and tested against S. aureus N315 to definitively determine which one is bioactive. This turned out to be m/z=215, which was identified as holomycin. Bioactivity testing is carried out by first spreading approximately 150 μL of an OD600˜0.01 S. aureus N315 culture in TSB onto a TSA plate to create a lawn of S. aureus N315. Next, 25-30 μL of each sample is deposited onto 6 mm sterile filter disks. The disks are allowed to dry and then placed onto the S. aureus N315 lawn. This plate is incubated for 16-20 hours at 30° C., after which it was examined for the appearance of a zone of inhibition around the disks.
The methanol sample was then concentrated further using a vacuum centrifuge (speed-vac or speed-yap) until approximately 100 μL remained. A 25 μL aliquot was then used to test for bioactivity against MRSA N315. This aliquot, which has not yet been fractionated on an HPLC system, is called a “crude extract.” About 40-50 μL of the concentrated sample was also injected into an HPLC-MS system. […]
(In agar diffusion tests the substance spreads into inoculated agar from a disc or well.)

Turning to `CC(=O)Nc1c2sscc-2[nH]c1=O` [holomycin], the “bioactivity against S. aureus N315 (zone of inhibition around disks)” value is “inhibits growth; also recorded: bioactive”. The “bioactivity against S. aureus N315 (zone of inhibition around disks)” value (listed as m/z=215 compound) is recorded as “bioactive”.
